Reference: PubChem BioAssay AID192 (DTP/NCI, 2004)
Where “and” joins values, the source holds several entries; their conditions need not be identical. Identical values can stand only once. Inconclusive results and toxic doses are left out.

Test system: BDF1 mice, B16 melanoma ip, median survival T/C
Assay: NCI In Vivo Anticancer Drug Screen. Data for tumor model B16 Melanoma (intraperitoneal) in B6D2F1 (BDF1) mice
Conditions: endpoint: median survival time, higher = longer survival
Experimental: The antitumor activity of compounds was measured in mice bearing transplantable tumors. Survival or tumor size were measured and the results are expressed as the measurement made in the treated group (T) divided by the measurement made in the vehicle treated control group (C). The tumor model used in this assay is B16 Melanoma (intraperitoneal) in B6D2F1 (BDF1) mice

[1] = dose: 25.0 mg/kg/injection, schedule: Q01DX009 (ip), vehicle: Klucel (hydroxypropylcellulose) (HPC)
[2] = dose: 50.0 mg/kg/injection, schedule: Q01DX009 (ip), vehicle: Klucel (hydroxypropylcellulose) (HPC)
[3] = dose: 100.0 mg/kg/injection, schedule: Q01DX009 (ip), vehicle: Klucel (hydroxypropylcellulose) (HPC)
[4] = dose: 100.0 mg/kg/injection, schedule: Q01DX009 (ip), vehicle: saline
[5] = dose: 200.0 mg/kg/injection, schedule: Q01DX009 (ip), vehicle: saline
[6] = dose: 400.0 mg/kg/injection, schedule: Q01DX009 (ip), vehicle: saline
[7] = dose: 100.0 mg/kg/injection, schedule: Q01DX009 (ip), vehicle: saline with Tween-80
[8] = dose: 200.0 mg/kg/injection, schedule: Q01DX009 (ip), vehicle: saline with Tween-80
[9] = dose: 25.0 mg/kg/injection, schedule: Q01DX009 (ip), vehicle: saline with Tween-80
[10] = dose: 50.0 mg/kg/injection, schedule: Q01DX009 (ip), vehicle: saline with Tween-80
[11] = dose: 50.0 mg/kg/injection, schedule: Q01DX009 (ip), vehicle: saline

Q: Which results are given for NC1=NC(=S)C2N=C(N=Nc3ccc(C(=O)NC(CCC(=O)O)C(=O)O)cc3)N=C2N1 (stereo not drawn)?
A: T/C (dose: 0.09 mg/kg/injection, schedule: Q01DX009 (ip), vehicle: Klucel (hydroxypropylcellulose) (HPC)): 100 % of control; T/C (dose: 0.19 mg/kg/injection, schedule: Q01DX009 (ip), vehicle: Klucel (hydroxypropylcellulose) (HPC)): 107 % of control; T/C (dose: 0.39 mg/kg/injection, schedule: Q01DX009 (ip), vehicle: Klucel (hydroxypropylcellulose) (HPC)): 111 % of control; T/C (dose: 0.78 mg/kg/injection, schedule: Q01DX009 (ip), vehicle: Klucel (hydroxypropylcellulose) (HPC)): 107 % of control; T/C (dose: 1.56 mg/kg/injection, schedule: Q01DX009 (ip), vehicle: Klucel (hydroxypropylcellulose) (HPC)): 89 % of control

Q: For Cc1ccc2nc3c4ccccc4c4ccccc4c3nc2c1, which T/C (dose: 100.0 mg/kg/injection, schedule: Q04DX003 (ip), vehicle: Klucel (hydroxypropylcellulose) (HPC)) is on record?
A: 102 % of control

Q: And the T/C (dose: 200.0 mg/kg/injection, schedule: Q04DX003 (ip), vehicle: Klucel (hydroxypropylcellulose) (HPC))?
A: 97 % of control

Q: What about the T/C (dose: 400.0 mg/kg/injection, schedule: Q04DX003 (ip), vehicle: Klucel (hydroxypropylcellulose) (HPC)) of the same molecule?
A: 91 % of control

Q: With CCN(CC)CCCC#CCN1CCCC1 as the molecule, how does the T/C [1] read?
A: 100 % of control

Q: And the T/C [2]?
A: 93 % of control

Q: What about the T/C [3] of the same molecule?
A: 93 % of control

Q: Which results are given for COc1cc(OC)c(OC)cc1/C=C\c1ccnc2ccccc12?
A: T/C [4]: 97 % of control; T/C [5]: 105 % of control; T/C [6]: 107 % of control; T/C (dose: 800.0 mg/kg/injection, schedule: Q01DX009 (ip), vehicle: saline): 102 % of control

Q: What does the source list for O=C(Nc1cc(C(F)(F)F)ccc1Cl)c1ccc(Cl)cc1Cl?
A: T/C [7]: 88 % of control; T/C [8]: 88 % of control

Q: What does the source list for COc1cc2c(c3c1c(=O)c1ccccc1n3C)C=CC(C)(C)O2?
A: T/C [9]: 102 % of control; T/C [10]: 107 % of control

Q: For Cc1cccc(CN)n1, which T/C [11] is on record?
A: 105 % of control

Q: And the T/C [4]?
A: 118 % of control

Q: For CC(=O)Nc1cccc(OCCCOc2cccc(C(=N)N)c2)c1, which T/C (dose: 9.37 mg/kg/injection, schedule: Q04DX003 (ip), vehicle: Klucel (hydroxypropylcellulose) (HPC)) is on record?
A: 102 % of control

Q: And the T/C (dose: 18.75 mg/kg/injection, schedule: Q04DX003 (ip), vehicle: Klucel (hydroxypropylcellulose) (HPC))?
A: 100 % of control

Q: And the T/C (dose: 37.5 mg/kg/injection, schedule: Q04DX003 (ip), vehicle: Klucel (hydroxypropylcellulose) (HPC))?
A: 97 % of control

Q: And the T/C [2]?
A: 102 % of control

Q: What about the T/C [3] of the same molecule?
A: 86 % of control

Q: Which results are given for CCC(C)CC(=O)O (stereo not drawn)?
A: T/C [4]: 97 % of control; T/C [5]: 97 % of control; T/C [6]: 93 % of control

Q: For O=C(OC1CCCCCCC1)C(F)(F)F, which T/C [3] is on record?
A: 100 % of control

Q: What about the T/C (dose: 400.0 mg/kg/injection, schedule: Q01DX009 (ip), vehicle: Klucel (hydroxypropylcellulose) (HPC)) of the same molecule?
A: 117 % of control

Q: For NC(C(=O)O)c1ccc(CBr)cc1 (stereo not drawn), which T/C (dose: 12.5 mg/kg/injection, schedule: Q01DX009 (ip), vehicle: acid diluted with saline) is on record?
A: 152 % of control

Q: And the T/C (dose: 25.0 mg/kg/injection, schedule: Q01DX009 (ip), vehicle: acid diluted with saline)?
A: 157 % of control

Q: What about the T/C (dose: 100.0 mg/kg/injection, schedule: Q01DX009 (ip), vehicle: acid diluted with saline) of the same molecule?
A: 152 % of control

Q: What about the T/C (dose: 200.0 mg/kg/injection, schedule: Q01DX009 (ip), vehicle: acid diluted with saline) of the same molecule?
A: 157 % of control

Q: What does the source list for c1ccc(CN2CCOC2)cc1?
A: T/C (dose: 12.5 mg/kg/injection, schedule: Q01DX009 (ip), vehicle: saline): 115 % of control; T/C (dose: 25.0 mg/kg/injection, schedule: Q01DX009 (ip), vehicle: saline): 111 % of control; T/C [11]: 122 % of control; T/C [4]: 111 % of control

Q: Which T/C [3] does the source give for Cc1ccc(C)c(NC(=O)Nc2cccc(Cl)c2)c1 here?
A: 102 % of control

Q: What about the T/C (dose: 200.0 mg/kg/injection, schedule: Q01DX009 (ip), vehicle: Klucel (hydroxypropylcellulose) (HPC)) of the same molecule?
A: 100 % of control

Q: What does the source list for COC(=O)C[C@](O)(CCC(C)(C)O)C(=O)O[C@@H]1C(OC)=C[C@]23CCCN2CCc2cc4c(cc2[C@H]13)OCO4?
A: T/C (dose: 0.25 mg/kg/injection, schedule: Q01DX009 (ip), vehicle: saline): 152 % of control; T/C (dose: 1.0 mg/kg/injection, schedule: Q01DX009 (ip), vehicle: saline): 150 % of control; T/C (dose: 2.0 mg/kg/injection, schedule: Q01DX009 (ip), vehicle: saline): 102 % of control; T/C (dose: 32.0 micrograms/kg/injection, schedule: Q01DX009 (ip), vehicle: saline): 104 % of control; T/C (dose: 63.0 micrograms/kg/injection, schedule: Q01DX009 (ip), vehicle: saline): 109 % of control; T/C (dose: 125.0 micrograms/kg/injection, schedule: Q01DX009 (ip), vehicle: saline): 113 % of control

Q: CC(C)CC(C)(c1ccc(O)cc1)c1ccc(O)cc1 was tested. Which T/C [7] did it give?
A: 98 % of control

Q: And the T/C [8]?
A: 98 % of control

Q: Which T/C (dose: 12.5 mg/kg/injection, schedule: Q01DX009 (ip), vehicle: saline with Tween-80) does the source give for Cc1ccc(S(=O)(=O)NC(=S)S)cc1 here?
A: 88 % of control

Q: And the T/C [9]?
A: 98 % of control and 122 % of control

Q: And the T/C [10]?
A: 97 % of control

Q: And the T/C [7]?
A: 92 % of control and 122 % of control

Q: Which results are given for CCC(Br)C(=O)Nc1c(C)cccc1Cl (stereo not drawn)?
A: T/C [1]: 106 % of control; T/C [2]: 93 % of control; T/C [3]: 93 % of control

Q: How did the T/C (dose: 8.0 mg/kg/injection, schedule: Q01DX009 (ip), vehicle: saline with Tween-80) turn out when O=c1cc(-c2ccccc2)[nH]c(-c2ccccc2)c1 was run?
A: 95 % of control

Q: And the T/C (dose: 18.0 mg/kg/injection, schedule: Q01DX009 (ip), vehicle: saline with Tween-80)?
A: 97 % of control
